Measurements published in patent US6737383B1, “Herbicidal oxadiazolidines” (priority 1999, dated 2004).

How the values were obtained:
cocklebur = assay: Test B pre/postemergence cocklebur; assay type: in vivo, Xanthium strumarium
Outline: (§1)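 Herbicidal effect was estimated by eye on a ten-point control scale after plants spent twelve to sixteen days in a greenhouse following soil or foliar treatment. Foliar sprays targeted plants at one to four leaves; all doses were formulated in a non-phytotoxic solvent with surfactant.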

velvetleaf = assay: Test B pre/postemergence velvetleaf; assay type: in vivo, Abutilon theophrasti
Outline: as §1

corn = assay: Test B pre/postemergence corn; assay type: in vivo, Zea mays
Outline: as §1

bedstraw = assay: Test B pre/postemergence bedstraw; assay type: in vivo, Galium aparine; settings: for Bedstraw plant response rating: Postemergence
Outline: as §1

surinam grass = assay: Test B pre/postemergence surinam grass; assay type: in vivo, Brachiaria decumbens
Outline: as §1

blackgrass = assay: Test B pre/postemergence blackgrass; assay type: in vivo, Alopecurus myosuroides
Outline: as §1

bamyardgrass = assay: Test B flood test barnyardgrass; assay type: in vivo, Echinochloa crus-galli
Outline: (§2)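 Plants were grown to the 2-leaf stage before treatment with test chemical, then held in a greenhouse for twelve to sixteen days. Injury was visually rated against untreated controls on a 0–10 scale, where 0 is no effect and 10 is complete control.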

wild oat = assay: Test B pre/postemergence wild oat; assay type: in vivo, Avena fatua
Outline: as §1

smallflower flatsedge = assay: Test B flood test smallflower flatsedge; assay type: in vivo, Cyperus difformis
Outline: as §2

pigweed = assay: Test B pre/postemergence pigweed; assay type: in vivo, Amaranthus retroflexus
Outline: as §1

rice = assay: Test B flood test rice; assay type: in vivo, Oryza sativa
Outline: as §2

duck salad = assay: Test B flood test duck salad; assay type: in vivo, Heteranthera limosa
Outline: as §2

morningglory = assay: Test B pre/postemergence morningglory; assay type: in vivo, Ipomoea hederacea
Outline: as §1

purple nutsedge = assay: Test B pre/postemergence purple nutsedge; assay type: in vivo, Cyperus rotundus
Outline: as §1

rape = assay: Test B pre/postemergence rape; assay type: in vivo, Brassica napus
Outline: as §1

wheat = assay: Test B pre/postemergence wheat; assay type: in vivo, Triticum aestivum
Outline: as §1

[1] = Preemergence, Rate 62 g/ha, scale of 0 to 10 where 0 is no effect and 10 is complete control
[2] = Preemergence, Rate 250 g/ha, scale of 0 to 10 where 0 is no effect and 10 is complete control
[3] = Preemergence, Rate 500 g/ha, scale of 0 to 10 where 0 is no effect and 10 is complete control
[4] = Rate 62 g/ha, Postemergence, scale 0 to 10 (0 no effect, 10 complete control)
[5] = Rate 125 g/ha, Postemergence, scale of 0 to 10 where 0 is no effect and 10 is complete control
[6] = Rate 250 g/ha, Postemergence, scale of 0 to 10 where 0 is no effect and 10 is complete control
[7] = Rate 500 g/ha, Postemergence, scale 0 to 10, 0 no effect, 10 complete control
[8] = Rate 62 g/ha, headed Pre-emergence (flood test species), scale 0 to 10 (0 no effect, 10 complete control)
[9] = Rate 125 g/ha, Pre-emergence, flood test species, scale 0 to 10 where 0 is no effect and 10 is complete control
[10] = Rate 250 g/ha, Pre-emergence, flood-test species, scale 0 to 10, 0 is no effect, 10 is complete control
[11] = Rate 500 g/ha, Pre-emergence, flood test species, scale 0 to 10 (0 no effect, 10 complete control)

For `CCN(C(=O)n1oc(=O)n(C2CC2)c1=O)C1CCCCC1` [Compound 298], the “Cocklebur plant response rating” value (cocklebur; [1]) was 0, the “Cocklebur plant response rating (0 to 10 scale)” value (cocklebur; Preemergence, Rate 125 g/ha) was 0 and the “Cocklebur plant response rating” value (cocklebur; [2]) was 0. For the same compound, the “Plant response rating, Cocklebur” value (cocklebur; [3]) was 0, the “Cocklebur plant response rating” value (cocklebur; [4]) was 0 and the “Cocklebur plant response rating” value (cocklebur; [5]) was 0. For the same compound, the “Plant response rating, Cocklebur” value (cocklebur; [6]) was 0, the “Cocklebur plant response rating” value (cocklebur; [7]) was 0 and the “Velvetleaf plant response rating” value (velvetleaf; [1]) was 0. The “Velvetleaf plant response rating (0 to 10 scale)” value (velvetleaf; Preemergence, Rate 125 g/ha) was 0, the “Velvetleaf plant response rating” value (velvetleaf; [2]) was 0 and the “Plant response rating, Velvetleaf” value (velvetleaf; [3]) was 0. The “Velvetleaf plant response rating” value (velvetleaf; [4]) was 0, the “Velvetleaf plant response rating” value (velvetleaf; [5]) was 0 and the “Plant response rating, Velvetleaf” value (velvetleaf; [6]) was 0. The “Corn plant response rating” value (corn; [1]) was 0, the “Corn plant response rating (0 to 10 scale)” value (corn; Preemergence, Rate 125 g/ha) was 0 and the “Corn plant response rating” value (corn; [2]) was 0. For the same compound, the “Plant response rating, Corn” value (corn; [3]) was 0, the “Corn plant response rating” value (corn; [4]) was 0 and the “Corn plant response rating” value (corn; [5]) was 0. The “Plant response rating, Corn” value (corn; [6]) was 0, the “Corn plant response rating” value (corn; [7]) was 0 and the “Bedstraw plant response rating (0 to 10 scale)” value (bedstraw; Preemergence, Rate 125 g/ha) was 0. For the same compound, the “Bedstraw plant response rating” value (bedstraw; Rate 62 g/ha, scale 0 to 10 (0 no effect, 10 complete control)) was 0, the “Bedstraw plant response rating” value (bedstraw; Rate 125 g/ha, scale of 0 to 10 where 0 is no effect and 10 is complete control) was 0 and the “B. signalgrass plant response rating” value (surinam grass; [1]) was 0. For the same compound, the “B. signalgrass plant response rating (0 to 10 scale, 0 is no effect, 10 is complete control)” value (surinam grass; Preemergence, Rate 125 g/ha) was 0, the “B. signalgrass plant response rating” value (surinam grass; [2]) was 0 and the “Plant response rating, B. signalgrass” value (surinam grass; [3]) was 0. The “B. signalgrass plant response rating” value (surinam grass; [4]) was 0, the “B. signalgrass plant response rating” value (surinam grass; [5]) was 0 and the “Plant response rating, B. signalgrass” value (surinam grass; [6]) was 0. For the same compound, the “B. signalgrass plant response rating” value (surinam grass; [7]) was 0, the “Blackgrass plant response rating” value (blackgrass; [1]) was 0 and the “Blackgrass plant response rating” value (blackgrass; [2]) was 0. For the same compound, the “Plant response rating, Blackgrass” value (blackgrass; [3]) was 0, the “Blackgrass plant response rating” value (blackgrass; [4]) was 0 and the “Blackgrass plant response rating” value (blackgrass; [5]) was 0. The “Plant response rating, Blackgrass” value (blackgrass; [6]) was 0, the “Blackgrass plant response rating” value (blackgrass; [7]) was 0 and the “Barnyardgrass plant response rating” value (bamyardgrass; [8]) was 0. For the same compound, the “Barnyardgrass plant response rating” value (bamyardgrass; [9]) was 0, the “Barnyardgrass plant response rating” value (bamyardgrass; [10]) was 0 and the “Barnyardgrass plant response rating” value (bamyardgrass; [11]) was 0. For the same compound, the “Wild oats plant response rating” value (wild oat; [1]) was 0, the “Wild oats plant response rating (0 to 10 scale)” value (wild oat; Preemergence, Rate 125 g/ha) was 0 and the “Wild oats plant response rating” value (wild oat; [2]) was 0. The “Plant response rating, Wild oats” value (wild oat; [3]) was 0, the “Wild oats plant response rating” value (wild oat; [4]) was 0 and the “Wild oats plant response rating” value (wild oat; [5]) was 0. For the same compound, the “Plant response rating, Wild oats” value (wild oat; [6]) was 0, the “S. Flatsedge plant response rating” value (smallflower flatsedge; [8]) was 0 and the “S. Flatsedge plant response rating” value (smallflower flatsedge; [9]) was 0. The “S. Flatsedge plant response rating” value (smallflower flatsedge; [10]) was 0, the “S. Flatsedge plant response rating” value (smallflower flatsedge; [11]) was 0 and the “Redroot pigweed plant response rating” value (pigweed; [1]) was 0. The “Redroot pigweed plant response rating (0 to 10 scale)” value (pigweed; Preemergence, Rate 125 g/ha) was 0, the “Redroot pigweed plant response rating” value (pigweed; [2]) was 0 and the “Plant response rating, Redroot pigweed” value (pigweed; [3]) was 0. The “Redroot pigweed plant response rating” value (pigweed; [4]) was 0, the “Redroot pigweed plant response rating” value (pigweed; [5]) was 0 and the “Plant response rating, Redroot pigweed” value (pigweed; [6]) was 0. For the same compound, the “Rice plant response rating” value (rice; [8]) was 0, the “Rice plant response rating” value (rice; [9]) was 0 and the “Rice plant response rating” value (rice; [10]) was 0. For the same compound, the “Rice plant response rating” value (rice; [11]) was 0, the “Ducksalad plant response rating” value (duck salad; [8]) was 0 and the “Ducksalad plant response rating” value (duck salad; [9]) was 0. The “Ducksalad plant response rating” value (duck salad; [10]) was 0, the “Ducksalad plant response rating” value (duck salad; [11]) was 0 and the “Morningglory plant response rating” value (morningglory; [1]) was 0. The “Morningglory plant response rating (0 to 10 scale)” value (morningglory; Preemergence, Rate 125 g/ha) was 0, the “Morningglory plant response rating” value (morningglory; [2]) was 0 and the “Plant response rating, Morningglory” value (morningglory; [3]) was 0. The “Morningglory plant response rating” value (morningglory; [4]) was 0, the “Morningglory plant response rating” value (morningglory; [5]) was 3 and the “Plant response rating, Morningglory” value (morningglory; [6]) was 3. The “Nutsedge plant response rating” value (purple nutsedge; [1]) was 0, the “Nutsedge plant response rating (0 to 10 scale)” value (purple nutsedge; Preemergence, Rate 125 g/ha) was 0 and the “Nutsedge plant response rating” value (purple nutsedge; [2]) was 0. For the same compound, the “Plant response rating, Nutsedge” value (purple nutsedge; [3]) was 0, the “Nutsedge plant response rating” value (purple nutsedge; [4]) was 0 and the “Nutsedge plant response rating” value (purple nutsedge; [5]) was 0. The “Plant response rating, Nutsedge” value (purple nutsedge; [6]) was 0, the “Rape plant response rating” value (rape; [1]) was 0 and the “Rape plant response rating (0 to 10 scale)” value (rape; Preemergence, Rate 125 g/ha) was 0. The “Rape plant response rating” value (rape; [2]) was 0, the “Plant response rating, Rape” value (rape; [3]) was 0 and the “Rape plant response rating” value (rape; [4]) was 0. The “Rape plant response rating” value (rape; [5]) was 0, the “Plant response rating, Rape” value (rape; [6]) was 0 and the “Wheat plant response rating” value (wheat; [1]) was 0. The “Wheat plant response rating (0 to 10 scale)” value (wheat; Preemergence, Rate 125 g/ha) was 0, the “Wheat plant response rating” value (wheat; [2]) was 0 and the “Plant response rating, Wheat” value (wheat; [3]) was 0. The “Wheat plant response rating” value (wheat; [4]) was 0, the “Wheat plant response rating” value (wheat; [5]) was 0 and the “Plant response rating, Wheat” value (wheat; [6]) was 0.
